The target in test [1] is T1, GST-LAR PTP domain (PTPRF) (Homo sapiens, UniProt P10586).
T1 construct: GST-LAR PTP domain purchased from Biomol International; purchased Biomol International, L.P. (Plymouth Meeting, Pa.)
T1 sequence (P10586 1352-1607 limits assumed): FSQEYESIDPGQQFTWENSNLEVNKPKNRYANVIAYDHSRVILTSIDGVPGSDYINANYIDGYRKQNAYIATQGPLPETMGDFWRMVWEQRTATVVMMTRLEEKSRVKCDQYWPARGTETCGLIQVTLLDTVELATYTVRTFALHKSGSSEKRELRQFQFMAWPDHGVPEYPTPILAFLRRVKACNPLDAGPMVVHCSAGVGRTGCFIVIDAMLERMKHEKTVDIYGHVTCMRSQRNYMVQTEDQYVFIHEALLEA
The experiment in a line: in vitro phosphatase assay, LAR. The format is biochemical. On the procedure:
(§1) Candidate compounds were screened using the in vitro protein tyrosine phosphatase (PTP) assay kit (Sigma, St. Lois, Mo.). […] The assay determines free phosphate generated by dephosphorylation of the PTP substrate using the Malachite Green reagent. Briefly, 0.5 μg of GST-SHP-2 PTP was incubated in 40 μL assay buffer (25 mM Tris-HCl, PH7.4, 50 mM NaCl, 5 mM DTT, and 2.5 mM EDTA) with test compounds at various concentrations or DMSO at room temperature for 30 min. The PTP substrate was then added to a final concentration of 0.2 mM. The system was incubated at 30° C. for 30 min. Finally, 50 μl of Malachite Green solution was added and OD620 was measured after 5 min. In the phosphatase assays for SHP-1, CD45, TC-PTP, PTP-MEG2 (PTPN9), and LAR (PTPRF), procedures were similar, with the exception that GST-SHP-1, GST-CD45 cytoplasmic domain, GST-TC-PTP, GST-PTP-MEG2 PTP domain, and GST-LAR PTP domain purchased from Biomol International, L.P. (Plymouth Meeting, Pa.) were used instead as the enzymes.

Test [2] relates to H661 (SHP-2 N58S) and H596 lung cancer cells. The experiment in a line: cell proliferation assay, lung cancer cells (MTS). The format is cell-based. As to conditions: indicated concentrations 48 hours; 10 μM time course. The method, then: To test the effects of the active compounds on SHP-2-mediated cellular proliferation, Ba/F3, an IL-3 dependent hematopoietic cell line, mouse embryonic fibroblasts (MEFs), and H661 lung cancer cell line with SHP-2 activating mutation N58S were used for the assays. Cells were seeded into 96-well plates (2×10^4 cells/well) in the RPMI-1640 (for Ba/F3 cells) or DMEM (for MEFs and H661 cells) medium supplemented with 10% fetal bovine serum (FBS) and test compounds at various concentrations. For the Ba/F3 cell assay, recombinant mouse IL-3 (1 ng/mL) was included in the culture medium. Two days later, cell number was determined using the MTS cell proliferation kit (Promega Life Science, Madison, Wis.).
FIG. 14 illustrates A). […] H661 and H596 cells were cultured in DMEM medium supplemented with active compounds at the indicated concentrations. DMSO was included at negative controls. Cell numbers were determined 48 hours later using the MTS assay. Shown are the results of a representative compound #324. B). […] H661 and H596 cells were cultured in DMEM medium supplemented with active compounds (10 μM) for the indicated periods of time. DMSO was included at negative controls. Cell numbers were determined using the MTS assay. Shown are the results of a representative compound #324.

Test [3] relates to JMML patient bone marrow cells. The experiment in a line: JMML bone marrow cells cultured with GM-CSF (MTS), FIG. 15. As to conditions: DMEM with GM-CSF. Type of test: cell-based. The method, then:
FIG. 15 illustrates inhibition of growth factor-independent colony formation of myeloid progenitors with SHP-2 activating mutation E76K by active compounds. JMML patient bone marrow cells were harvested from mutant mice with SHP-2 E76K mutation and were cultured in DMEM medium supplemented GM-CSF. DMSO was included at negative controls. Cell numbers were determined using the MTS assay. Shown are the results of a representative compound #324.

In test [4] the target is T2, GST-CD45 cytoplasmic domain (Homo sapiens, UniProt P08575).
T2 construct: GST-CD45 cytoplasmic domain; purchased Biomol International, L.P. (Plymouth Meeting, Pa.)
T2 sequence (P08575 599-1306 limits assumed): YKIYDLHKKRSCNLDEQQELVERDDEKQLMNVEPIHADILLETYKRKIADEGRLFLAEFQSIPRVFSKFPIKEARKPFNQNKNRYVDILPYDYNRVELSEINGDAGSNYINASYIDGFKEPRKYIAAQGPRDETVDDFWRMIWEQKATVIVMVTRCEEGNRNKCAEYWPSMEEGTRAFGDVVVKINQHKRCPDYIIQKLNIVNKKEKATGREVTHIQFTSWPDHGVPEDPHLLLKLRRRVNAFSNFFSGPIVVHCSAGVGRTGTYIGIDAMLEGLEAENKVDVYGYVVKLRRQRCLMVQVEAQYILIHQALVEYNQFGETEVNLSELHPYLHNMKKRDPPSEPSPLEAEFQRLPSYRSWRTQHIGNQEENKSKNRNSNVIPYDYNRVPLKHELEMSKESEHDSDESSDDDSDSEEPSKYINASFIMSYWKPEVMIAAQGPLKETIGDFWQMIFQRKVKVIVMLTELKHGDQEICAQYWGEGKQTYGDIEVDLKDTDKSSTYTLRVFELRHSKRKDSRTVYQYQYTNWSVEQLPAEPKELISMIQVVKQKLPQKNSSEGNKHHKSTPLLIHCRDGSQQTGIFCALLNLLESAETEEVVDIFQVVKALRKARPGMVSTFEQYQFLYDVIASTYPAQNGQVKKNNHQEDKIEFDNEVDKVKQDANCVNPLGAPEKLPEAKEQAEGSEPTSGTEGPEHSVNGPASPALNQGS
The experiment in a line: in vitro phosphatase assay, CD45. The format is biochemical. As to conditions: read-out: IC50 PTPRC (CD45). On the procedure:
as §1

Test [5] deals with myeloid progenitors, wildtype and SHP-2 E76K. The experiment in a line: hematopoietic progenitor cell colony formation assay (CFU-GM). The format is cell-based, mouse. The method, then:
To determine cellular response of myeloid progenitors to IL-3, bone marrow cells (5×10^4 cells/ml) freshly harvested from C57BL6 mice were assayed for colony forming units (CFUs) in 0.9% methylcellulose IMDM medium containing 30% FBS, glutamine (10^−4 M), β-mercaptoethanol (3.3×10^−5 M), and IL-3 (10 ng/ml). After 7 days of culture at 37° C. in a humidified 5% CO2 incubator, hematopoietic cell colonies (primarily CFU-GM) were counted under an inverted microscope.
FIG. 13 illustrates A). […] Bone marrow cells were harvested from wildtype and mutant mice with SHP-2 E76K mutation. IL-3 induced myeloid progenitor cell colony (CFU-GM) formation assays were performed as described in the Examples in the presence of various concentrations of active compounds. Shown are the results of a representative compound #324. B). Inhibition of growth factor-independent colony formation of myeloid progenitors with SHP-2 activating mutation E76K by active compounds. Bone marrow cells were harvested from wildtype and mutant mice with SHP-2 E76K mutation. The cells were assayed for CFU-GM without cytokines in the presence of various concentrations of active compounds. Shown are the results of a representative compound #324.

A word on the IC50: it is the concentration at which inhibition is half-maximal. On to `Cc1cc(C)c2[nH]c3nc(SCC(=O)Nc4cccc5ccccc45)nnc3c2c1` [#324], for which the IC50 in test [1] worked out at 144 µM; in test [4], 182 µM. The “sensitivity of H661 (N58S) cells versus H596 cells” value in test [2] is reported as “more sensitive”. For the same molecule, in test [3], the “growth of JMML bone marrow cells with GM-CSF (FIG. 15)” value was “inhibition”. Besides, the “growth factor-independent colony formation of E76K myeloid progenitors” value in test [5] (CFU-GM without cytokines) was “Inhibition”. Also, the “sensitivity of E76K myeloid progenitors versus wild type (IL-3 induced CFU-GM)” value in test [5] (IL-3 induced colony formation) is “more sensitive”.
